# Test results from patent US10375956B2, “Herbicidally active 2-(substituted-phenyl)-cyclopentane-1,3-dione compounds and derivatives thereof” (Syngenta Limited, priority 2013, dated 2019).
# Tests used:
# Assay type in all cases: in vivo
# [1] = system: Brachiaria decumbens (BRADC); assay: Biological Example 3 glasshouse assay, post-emergence, various adjuvant systems; settings: 8 g/ha; for percentage control of (phytotoxicity on) Brachiaria decumbens (BRADC): adjuvant 0.5% v/v Hexamoll DINCH + 1.0% v/v AMS + 12.5% v/v IPA; for percentage control of Brachiaria decumbens (BRADC): adjuvant 0.5% v/v TEHP + 1.0% v/v AMS + 12.5% v/v IPA
# Procedure: (§1) Post-emergence foliar spray application, 200 L/ha, usually one or two replicates for the weeds (depending on application rate), and two replicates for soybean.
# (§2) Standard warm conditions (tropical), in glasshouse. Specifically, the glasshouse bay conditions are 24° C./18° C. day/night; 16/8 hours light/dark; 65% humidity.
# (§3) The herbicidal application takes place at the following growth stages for plants which include inter alia one or more of the following plants (usually the herbicidal application takes place on at least the following plants: DIGSA, ELEIN, SETFA, ZEAMX, GLXMA Nikko, and GLXMA TMG133, and often also either BRADC or BRAPP):
# Brachiaria decumbens (BRADC)—growth stage (GS) 12 or 13 (or GS 12)—or, if BRADC is not used, then sometimes Brachiaria platyphylla (BRAPP)—growth stage 12 or 13
# (§4) Each test compound is applied with one of the following adjuvant systems (all percentages are final concentrations in the aqueous spray mixture):
# (§5) Adjuvant system 2: 0.5% v/v Hexamoll™ DINCH**, 1.0% v/v AMS (ammonium sulphate) and 12.5% v/v IPA (isopropyl alcohol).
# (§6) Adjuvant system 3: 0.5% v/v tris-(2-ethylhexyl)phosphate (“TEHP”), 1.0% v/v AMS (ammonium sulphate) and 12.5% v/v IPA (isopropyl alcohol).
# (§7) Seeds of the weed (including volunteer) plants, typically including inter alia Digitaria sanguinalis (DIGSA), Eleusine indica (ELEIN), Setaria faberi (SETFA), Zea mays (ZEAMX, corn), and sometimes also [either Brachiaria decumbens (BRADC) or Brachiaria platyphylla (BRAPP)], are sown in seed trays (troughs) containing clay loam soil (pH 7.0, 2.2% organic matter, “Trough Mix A”); and soybean seed is sown in pots containing the same soil with 3 soybean seedlings per pot. The plants are sprayed with the test herbicide when they reach the growth stages mentioned above.
# (§8) The test herbicidal solutions are prepared by mixing the appropriate aliquots of the test substance(s) and one of the adjuvant systems indicated above *** in deionised water to give the desired treatment concentration.
# (§9) The herbicidal application is made as a foliar spray, using a tracksprayer. Following the herbicidal application, the plants are watered twice per day for the duration of the test.
# (§10) A visual assessment of the % herbicidal damage is made 7 and 14 Days After herbicide Application (DAA) (or, in a minority of cases, 7 and 15 DAA), and the results are recorded as % visual herbicidal damage where 0%=no damage to plants and 100%=plant totally killed.
# Compounds A2 and A7 were tested using the 0.5% v/v Hexamoll™ DINCH™+1.0% v/v AMS+12.5% v/v IPA adjuvant system. Compounds A11, A12, A14, A20 and A21 were tested using the 0.5% v/v tris-(2-ethylhexyl)phosphate (“TEHP”)+1.0% v/v AMS+12.5% v/v IPA adjuvant system. […]
# [2] = system: Zea mays (ZEAMX, maize/corn) cultivar Garland; assay: as above; settings: 8 g/ha; for percentage control of (phytotoxicity on) Zea mays (ZEAMX, maize, corn): adjuvant 0.5% v/v Hexamoll DINCH + 1.0% v/v AMS + 12.5% v/v IPA; for percentage control of Zea mays: adjuvant 0.5% v/v TEHP + 1.0% v/v AMS + 12.5% v/v IPA
# Procedure: as §1, §2, §3
# Zea mays (ZEAMX, maize/corn, e.g. can occur as volunteer corn) cultivar “Garland”—growth stage 12 or 13
# as §4, §5, §6, §7, §8, §9, §10
# (§11) Compounds A2 and A7 were tested using the 0.5% v/v Hexamoll™ DINCH™+1.0% v/v AMS+12.5% v/v IPA adjuvant system. Compounds A11, A12, A14, A20 and A21 were tested using the 0.5% v/v tris-(2-ethylhexyl)phosphate (“TEHP”)+1.0% v/v AMS+12.5% v/v IPA adjuvant system.
# (§12) The percentages of herbicidal damage/plant control, at 14 Days After herbicide Application (DAA) (or, in some cases, at 15 DAA), for the Compounds tested and for some of the plants tested, were in the following percentage ranges. For the tested compounds, the phytotoxicity results shown herein are generally the average of 2 or 3 repetitions (for the grassy weeds including corn) or the average of 2 repetitions (for soybean for most of the tested compounds). However, for Compound A2 on soybean there was 1 repetion only.
# Zea mays (ZEAMX, maize, corn) is often present as a “volunteer” weed (“volunteer” corn) in fields where it was planted as a crop in preceding growing season(s) and where the present field crop is not corn.
# Eleusine indica (ELEIN) = assay: as above; settings: 8 g/ha; for percentage control of (phytotoxicity on) Eleusine indica (ELEIN): adjuvant 0.5% v/v Hexamoll DINCH + 1.0% v/v AMS + 12.5% v/v IPA; for percentage control of Eleusine indica: adjuvant 0.5% v/v TEHP + 1.0% v/v AMS + 12.5% v/v IPA
# Procedure: as §1, §2, §3
# Eleusine indica (ELEIN)—growth stage 12 or 13
# as §4, §5, §6, §7, §8, §9, §10, §11, §12
# Avena fatua (AVEFA) = assay: Test 1 glasshouse assay, post-emergence herbicidal activity; settings: 312 h, post-emergence (Example 1B Table 2), after 13 days, read-out: Percentage phytotoxicity AVEFA
# Procedure: (§13) Seeds of a variety of test species are sown in standard soil in pots. After cultivation for one day (pre-emergence) or after 8 days cultivation (post-emergence) under controlled conditions in a glasshouse (at 24/16° C., day/night; 14 hours light; 65% humidity), the plants are sprayed with an aqueous spray solution derived from the formulation of the “technical” (i.e. unformulated) active ingredient in acetone/water (50:50) solution containing 0.5% Tween 20 (polyoxyethylene sorbitan monolaurate, CAS Registry Number 9005-64-5). The test plants are then grown on under controlled conditions in a glasshouse (at 24/16° C., day/night; 14 hours light; 65% humidity) and watered twice daily. After 13 days for pre- or post-emergence, the test is evaluated visually, and an assessed percentage phytotoxicity score is given for each herbicidal application on each plant species (where 100%=total damage to plant; 0%=no damage to plant).
# (§14) Lolium perenne (LOLPE), Alopecurus myosuroides (ALOMY), Echinochloa crus-galli (ECHCG), and Avena fatua (AVEFA); these are all grassy monocotyledonous weeds. Cool climate crop plant: Triticum aestivum (TRZAW, winter wheat).
# Lolium perenne (LOLPE) = assay: as above; settings: 312 h, post-emergence (Example 1B Table 2), after 13 days, read-out: Percentage phytotoxicity LOLPE
# Procedure: as §13, §14
# [3] = system: Triticum aestivum (TRZAW, winter wheat); assay: as above; settings: 312 h, post-emergence (Example 1B Table 2), after 13 days, crop plant, read-out: Percentage phytotoxicity TRZAW
# Procedure: as §13, §14
# [4] = system: Glycine max (GLXMA, soybean) cultivar Nikko; assay: Biological Example 3 glasshouse assay, post-emergence, various adjuvant systems; settings: crop
# Procedure: as §1, §2, §3
# Glycine max (GLXMA, soybean) cultivar “Nikko”—growth stage: 1st trifoliate
# as §4, §5, §6, §7, §8, §9, §10, §11, §12
# [5] = 120 g/ha, 14 DAA, adjuvant 0.5% v/v Hexamoll DINCH + 1.0% v/v AMS + 12.5% v/v IPA
# [6] = 120 g/ha, 14 or 15 DAA, adjuvant 0.5% v/v TEHP + 1.0% v/v AMS + 12.5% v/v IPA
Compound,pest or weed control at 62.5 g/ha (Avena fatua (AVEFA)),pest or weed control at 250 g/ha (Avena fatua (AVEFA)),pest or weed control at 62.5 g/ha (Lolium perenne (LOLPE)),pest or weed control at 250 g/ha (Lolium perenne (LOLPE)),plant injury at 62.5 g/ha [3],plant injury at 250 g/ha [3],also measured
C#CCC1CC(=O)C(c2c(C)cc(-c3ccc(Cl)cn3)cc2C)C1=O (stereo not shown) [Compound A2],80%,100%,70%,100%,70%,90%,"percentage control of (phytotoxicity on) Brachiaria decumbens (BRADC) ([1]; 14 DAA): 50%; percentage control of (phytotoxicity on) Zea mays (ZEAMX, maize, corn) ([2]; 14 DAA): 10%; percentage control of (phytotoxicity on) Eleusine indica (ELEIN) (Eleusine indica (ELEIN); 14 DAA): 85%; percentage phytotoxicity on Glycine max cultivar Nikko [4, 5]: 10%"
C#CCC1CC(=O)C(c2c(C)cc(-c3ncc(Cl)cc3F)cc2C)C1=O (stereo not shown) [Compound A3],90%,100%,100%,100%,90%,90%,
"C#CCC1CC(=O)C(c2c(F)cc(-c3ccc(Cl)cc3)cc2Cl)C1=O (stereo not shown) [Compound A6, 2-[2-chloro-4-(4-chlorophenyl)-6-fluorophenyl]-4-prop-2-ynylcyclopentane-1,3-dione]",,90%,,80%,,80%,
C#CCC1CC(=O)C(c2c(Cl)cc(-c3ccc(F)cc3)cc2OC)C1=O (stereo not shown) [Compound A7],,,,,,,"percentage control of (phytotoxicity on) Brachiaria decumbens (BRADC) ([1]; 14 DAA): 95%; percentage control of (phytotoxicity on) Zea mays (ZEAMX, maize, corn) ([2]; 14 DAA): 100%; percentage control of (phytotoxicity on) Eleusine indica (ELEIN) (Eleusine indica (ELEIN); 14 DAA): 91.7%; percentage phytotoxicity on Glycine max cultivar Nikko [4, 5]: 2.5%"
C#CCC1CC(=O)C(c2c(F)cc(-c3ccc(Cl)cn3)cc2Cl)C1=O (stereo not shown) [Compound A8],90%,100%,70%,100%,80%,80%,
C#CCC1CC(=O)C(c2c(Cl)cc(-c3ccc(Cl)cn3)cc2OC)C1=O (stereo not shown) [Compound A10],100%,100%,100%,100%,90%,90%,
"C#CCC1CC(=O)C(c2c(Cl)cc(-c3ccc(Cl)cc3)cc2OC)C1=O (stereo not shown) [Compound A11, 2-[2-chloro-4-(4-chlorophenyl)-6-methoxyphenyl]-4-prop-2-ynylcyclopentane-1,3-dione]",,,,,,,"percentage control of Brachiaria decumbens (BRADC) ([1]; 14 DAA): 99%; percentage control of Zea mays ([2]; 14 DAA): 100%; percentage control of Eleusine indica (Eleusine indica (ELEIN); 14 DAA): 95%; percentage phytotoxicity on Glycine max cultivar Nikko ([4]; 120 g/ha, 14 DAA, adjuvant 0.5% v/v TEHP + 1.0% v/v AMS + 12.5% v/v IPA): 15%"
C#CCC1CC(=O)C(c2c(Cl)cc(-c3ccc(F)cc3F)cc2OC)C1=O (stereo not shown) [Compound A12],60%,100%,70%,100%,70%,80%,"percentage control of Brachiaria decumbens (BRADC) ([1]; 14 or 15 DAA): 99%; percentage control of Zea mays ([2]; 14 or 15 DAA): 100%; percentage control of Eleusine indica (Eleusine indica (ELEIN); 14 or 15 DAA): 90%; percentage phytotoxicity on Glycine max cultivar Nikko ([4]; 240 g/ha, 14 or 15 DAA, adjuvant 0.5% v/v TEHP + 1.0% v/v AMS + 12.5% v/v IPA): 15%"
C#CCC1CC(=O)C(c2c(Cl)cc(-c3ccc(F)c(F)c3)cc2OC)C1=O (stereo not shown) [Compound A13],100%,100%,90%,100%,80%,80%,
C#CCC1CC(=O)C(c2c(F)cc(-c3ccc(Cl)cc3)cc2OC)C1=O (stereo not shown) [Compound A14],,100%,,80%,,70%,"percentage control of Zea mays ([2]; 15 DAA): 90%; percentage control of Eleusine indica (Eleusine indica (ELEIN); 15 DAA): 20%; percentage phytotoxicity on Glycine max cultivar Nikko ([4]; 120 g/ha, 15 DAA, adjuvant 0.5% v/v TEHP + 1.0% v/v AMS + 12.5% v/v IPA): 5%"
"C#CCC1CC(=O)C(c2c(F)cc(-c3ccc(F)cc3)cc2OC)C1=O (stereo not shown) [Compound A20, 2-[2-fluoro-4-(4-fluorophenyl)-6-methoxyphenyl]-4-prop-2-ynylcyclopentane-1,3-dione]",,,,,,,"percentage control of Zea mays ([2]; 14 or 15 DAA): 90%; percentage control of Eleusine indica (Eleusine indica (ELEIN); 14 or 15 DAA): 15%; percentage phytotoxicity on Glycine max cultivar Nikko [4, 6]: 2%"
C#CCC1CC(=O)C(c2c(F)cc(-c3ccc(F)cc3F)cc2OC)C1=O (stereo not shown) [Compound A21],,,,,,,"percentage control of Zea mays ([2]; 14 or 15 DAA): 95%; percentage control of Eleusine indica (Eleusine indica (ELEIN); 14 or 15 DAA): 25%; percentage phytotoxicity on Glycine max cultivar Nikko [4, 6]: 5%"
C#CCC1CC(=O)C(c2c(C)cc(C)cc2C)C1=O (stereo not shown) [Compound A23],90%,90%,90%,100%,50%,70%,
"C#CCC1CC(=O)C(c2c(CC)cc(C)cc2CC)C1=O (stereo not shown) [Compound A25, 2-(2,6-diethyl-4-methyl-phenyl)-4-(prop-2-ynyl)-cyclopentane-1,3-dione]",100%,100%,100%,100%,30%,60%,
C#CCC1C(=O)C(c2c(C)cc(C)cc2C)C(=O)C1CC#C (stereo not shown) [Compound A42],,80%,,100%,,20%,
